ChEMBL document CHEMBL5244269, “Improving metabolic stability and removing aldehyde oxidase liability in a 5-azaquinazoline series of IRAK4 inhibitors” (Bioorg Med Chem, 2020)
Converted amounts (≈) assume the structure as drawn.

Assays:
[1] = test system: SUD4; experiment: Growth inhibition of human SU-DHL-4 cells at 0.17 uM incubated for 3 days (reference value: -1%); assay type: functional; conditions: SU-DHL-4, 72 h, time 3 day, read-out: GI
[2] = test system: OCI-Ly10; experiment: Growth inhibition of human OCILY10 cells at 1.7 uM incubated for 3 days (Rvb= -3%); assay type: functional; conditions: OCI-Ly10, 72 h, time 3 day, read-out: GI
[3] = test system: OCI-Ly10; experiment: Growth inhibition of human OCILY10 cells at 0.17 uM incubated for 3 days (Rvb= -3%); assay type: functional; conditions: OCI-Ly10, 72 h, time 3 day, read-out: GI
[4] = Plasma protein binding in rat assessed as free fraction by equilibrium dialysis analysis; assay type: ADME, cell-free
[5] = Terminal half life in Han Wistar rat at 1 mg/kg, iv; assay type: ADME, organism-based; conditions: in vivo, read-out: beta t1/2 (converted)
[6] = biological target: BDNF/NT-3 growth factors receptor (Homo sapiens, UniProt Q16620); experiment: Inhibition of TRKB (unknown origin) in presence of 25 uM ATP
[7] = Metabolic stability in human hepatocytes assessed as half life; assay type: ADME, cell-based, Hepatocyte
[8] = test system: SUD4; experiment: Growth inhibition of human SU-DHL-4 cells at 10 uM incubated for 3 days (reference value: -1%); assay type: functional; conditions: SU-DHL-4, 72 h, time 3 day, read-out: GI
[9] = biological target: Tyrosine-protein kinase BTK (Homo sapiens, UniProt Q06187); experiment: Inhibition of BTK (unknown origin) in presence of 25 uM ATP
[10] = biological target: High affinity nerve growth factor receptor (Homo sapiens, UniProt P04629); experiment: Inhibition of TRKA (unknown origin) in presence of 400 uM ATP
[11] = biological target: Interleukin-1 receptor-associated kinase 1 (Homo sapiens, UniProt P51617); experiment: Inhibition of IRAK1 (unknown origin) in presence of 25 uM ATP
[12] = biological target: T1, Phosphatidylinositol 4,5-bisphosphate 3-kinase catalytic subunit delta isoform (Homo sapiens, UniProt O00329); experiment: Inhibition of PI3Kdelta (unknown origin) in presence of […] uM ATP
T1 sequence (O00329 whole entry): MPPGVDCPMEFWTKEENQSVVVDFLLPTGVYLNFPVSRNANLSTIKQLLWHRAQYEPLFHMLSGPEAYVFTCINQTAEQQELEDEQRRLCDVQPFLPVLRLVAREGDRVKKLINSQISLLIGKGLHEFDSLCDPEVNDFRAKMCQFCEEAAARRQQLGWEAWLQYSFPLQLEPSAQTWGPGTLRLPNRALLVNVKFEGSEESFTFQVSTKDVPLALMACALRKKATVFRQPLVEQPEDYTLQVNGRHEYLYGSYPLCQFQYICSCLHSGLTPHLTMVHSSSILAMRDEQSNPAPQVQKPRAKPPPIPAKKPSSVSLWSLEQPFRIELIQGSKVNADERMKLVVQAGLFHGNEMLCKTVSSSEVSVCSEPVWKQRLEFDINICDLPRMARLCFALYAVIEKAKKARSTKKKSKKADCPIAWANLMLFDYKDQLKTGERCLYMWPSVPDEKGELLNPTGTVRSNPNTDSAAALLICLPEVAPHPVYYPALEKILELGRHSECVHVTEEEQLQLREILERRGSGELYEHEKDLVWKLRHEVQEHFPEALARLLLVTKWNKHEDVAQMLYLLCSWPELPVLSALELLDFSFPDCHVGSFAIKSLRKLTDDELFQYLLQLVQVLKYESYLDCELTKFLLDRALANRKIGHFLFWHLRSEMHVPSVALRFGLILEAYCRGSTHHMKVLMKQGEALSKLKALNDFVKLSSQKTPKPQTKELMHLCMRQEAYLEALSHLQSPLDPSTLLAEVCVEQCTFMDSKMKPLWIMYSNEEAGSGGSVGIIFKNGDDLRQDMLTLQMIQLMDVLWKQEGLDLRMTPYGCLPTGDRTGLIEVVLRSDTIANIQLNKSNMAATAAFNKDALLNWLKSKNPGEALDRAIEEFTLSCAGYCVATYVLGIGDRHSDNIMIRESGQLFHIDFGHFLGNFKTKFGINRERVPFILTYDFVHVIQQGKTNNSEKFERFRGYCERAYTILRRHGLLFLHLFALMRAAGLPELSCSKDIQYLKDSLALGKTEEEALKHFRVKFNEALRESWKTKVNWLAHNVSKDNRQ

[13] = test system: OCI-Ly10; experiment: Growth inhibition of human OCILY10 cells at 0.33 uM incubated for 3 days (Rvb= -3%); assay type: functional; conditions: OCI-Ly10, 72 h, time 3 day, read-out: GI
[14] = Metabolic stability in rat liver microsomes assessed as intrinsic clearance; assay type: ADME, Microsome; conditions: read-out: CLH
[15] = Lipophilicity, LogD at pH 7.4 of the compound by shake flask method; assay type: physicochemical; conditions: buffer
[16] = Terminal half life in CD1 mouse at 0.5 mg/kg, iv; assay type: ADME, organism-based; conditions: in vivo, read-out: beta t1/2 (converted)
[17] = Metabolic stability in human cytosol assessed as intrinsic clearance; assay type: ADME, subcellular
[18] = test system: SUD4; experiment: Growth inhibition of human SU-DHL-4 cells at 1.7 uM incubated for 3 days (reference value: -1%); assay type: functional; conditions: SU-DHL-4, 72 h, time 3 day, read-out: GI
[19] = Metabolic stability in dog hepatocytes assessed as intrinsic clearance measured per 10^6 cells; assay type: ADME, cell-based, Canis lupus familiaris, Hepatocyte; conditions: read-out: CLH
[20] = Efflux ratio of apparent permeability basolateral to apical side over apical to basolateral side in human Caco-2 cells measured for 360 mins by liquid scintillation counting based analysis; assay type: ADME, cell-based
[21] = biological target: NT-3 growth factor receptor (Homo sapiens, UniProt Q16288); experiment: Inhibition of TRKC (unknown origin) in presence of 50 uM ATP
[22] = Aqueous solubility in pH 7.4 phosphate buffer; assay type: physicochemical
[23] = test system: SUD4; experiment: Growth inhibition of human SU-DHL-4 cells at 3.3 uM incubated for 3 days (reference value: -1%); assay type: functional; conditions: SU-DHL-4, 72 h, time 3 day, read-out: GI
[24] = test system: SUD4; experiment: Growth inhibition of human SU-DHL-4 cells at 0.33 uM incubated for 3 days (reference value: -1%); assay type: functional; conditions: SU-DHL-4, 72 h, time 3 day, read-out: GI
[25] = biological target: T2, Interleukin-1 receptor-associated kinase 4 (Homo sapiens, UniProt Q9NWZ3); experiment: Inhibition of IRAK4 (unknown origin) phosphorylation by cell based assay
T2 sequence (Q9NWZ3 whole entry): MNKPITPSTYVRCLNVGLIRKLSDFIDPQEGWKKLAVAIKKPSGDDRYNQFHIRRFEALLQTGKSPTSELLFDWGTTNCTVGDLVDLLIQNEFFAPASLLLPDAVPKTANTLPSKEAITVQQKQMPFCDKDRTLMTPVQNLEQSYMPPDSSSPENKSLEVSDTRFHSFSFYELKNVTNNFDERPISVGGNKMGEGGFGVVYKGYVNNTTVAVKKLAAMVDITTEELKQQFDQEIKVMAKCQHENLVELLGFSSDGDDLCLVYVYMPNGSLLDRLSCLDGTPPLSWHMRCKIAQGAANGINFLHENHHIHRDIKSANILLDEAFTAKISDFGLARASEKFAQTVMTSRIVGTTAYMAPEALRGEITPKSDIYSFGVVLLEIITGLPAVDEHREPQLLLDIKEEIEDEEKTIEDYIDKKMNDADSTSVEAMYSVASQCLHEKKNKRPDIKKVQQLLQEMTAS

[26] = test system: OCI-Ly10; experiment: Growth inhibition of human OCILY10 cells at 0.33 uM incubated for 3 days (reference value: -2%); assay type: functional; conditions: OCI-Ly10, 72 h, time 3 day, read-out: GI
[27] = test system: OCI-Ly10; experiment: Growth inhibition of human OCILY10 cells at 1.7 uM incubated for 3 days (reference value: -2%); assay type: functional; conditions: OCI-Ly10, 72 h, time 3 day, read-out: GI
[28] = test system: OCI-Ly10; experiment: Growth inhibition of human OCILY10 cells at 10 uM incubated for 3 days (reference value: -2%); assay type: functional; conditions: OCI-Ly10, 72 h, time 3 day, read-out: GI

High affinity nerve growth factor receptor, sequence (P04629 whole entry): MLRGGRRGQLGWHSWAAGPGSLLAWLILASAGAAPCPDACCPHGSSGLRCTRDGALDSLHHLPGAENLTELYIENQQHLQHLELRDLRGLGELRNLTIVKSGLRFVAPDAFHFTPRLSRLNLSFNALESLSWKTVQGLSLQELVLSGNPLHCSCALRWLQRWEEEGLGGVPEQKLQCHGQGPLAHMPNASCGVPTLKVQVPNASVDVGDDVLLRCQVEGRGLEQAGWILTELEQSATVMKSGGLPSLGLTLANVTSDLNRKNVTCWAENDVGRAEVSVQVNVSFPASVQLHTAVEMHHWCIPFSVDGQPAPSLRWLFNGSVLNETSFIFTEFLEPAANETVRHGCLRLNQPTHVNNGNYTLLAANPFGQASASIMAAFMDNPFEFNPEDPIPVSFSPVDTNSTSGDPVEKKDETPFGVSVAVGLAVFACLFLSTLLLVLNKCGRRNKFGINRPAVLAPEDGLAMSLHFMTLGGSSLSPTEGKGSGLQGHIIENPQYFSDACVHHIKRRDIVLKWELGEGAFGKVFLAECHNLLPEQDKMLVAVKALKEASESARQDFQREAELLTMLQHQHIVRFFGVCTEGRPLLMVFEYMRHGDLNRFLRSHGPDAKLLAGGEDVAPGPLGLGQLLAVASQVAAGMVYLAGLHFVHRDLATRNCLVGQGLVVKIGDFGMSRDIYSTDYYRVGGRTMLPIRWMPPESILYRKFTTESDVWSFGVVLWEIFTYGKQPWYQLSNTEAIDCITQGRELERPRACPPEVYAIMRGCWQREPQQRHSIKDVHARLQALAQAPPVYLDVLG
Tyrosine-protein kinase BTK, sequence (Q06187 whole entry): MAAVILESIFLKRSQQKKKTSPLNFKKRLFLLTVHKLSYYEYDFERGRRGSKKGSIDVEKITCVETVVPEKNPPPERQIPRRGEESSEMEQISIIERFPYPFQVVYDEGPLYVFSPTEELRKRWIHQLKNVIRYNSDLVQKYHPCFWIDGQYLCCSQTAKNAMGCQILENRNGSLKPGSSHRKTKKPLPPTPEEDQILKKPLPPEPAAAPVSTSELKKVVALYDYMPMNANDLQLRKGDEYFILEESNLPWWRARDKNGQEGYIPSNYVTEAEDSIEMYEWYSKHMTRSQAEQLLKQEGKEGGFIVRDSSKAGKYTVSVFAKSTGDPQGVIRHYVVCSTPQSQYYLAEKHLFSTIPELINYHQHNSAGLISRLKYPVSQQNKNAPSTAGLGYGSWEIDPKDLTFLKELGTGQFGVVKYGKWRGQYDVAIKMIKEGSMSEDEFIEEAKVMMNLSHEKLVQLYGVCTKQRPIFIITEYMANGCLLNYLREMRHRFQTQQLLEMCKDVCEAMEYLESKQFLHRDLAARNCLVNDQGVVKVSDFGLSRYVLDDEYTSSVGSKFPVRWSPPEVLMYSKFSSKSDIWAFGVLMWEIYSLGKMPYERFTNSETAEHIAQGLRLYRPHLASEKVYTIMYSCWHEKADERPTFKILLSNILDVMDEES
Interleukin-1 receptor-associated kinase 1, sequence (P51617 whole entry, canonical isoform): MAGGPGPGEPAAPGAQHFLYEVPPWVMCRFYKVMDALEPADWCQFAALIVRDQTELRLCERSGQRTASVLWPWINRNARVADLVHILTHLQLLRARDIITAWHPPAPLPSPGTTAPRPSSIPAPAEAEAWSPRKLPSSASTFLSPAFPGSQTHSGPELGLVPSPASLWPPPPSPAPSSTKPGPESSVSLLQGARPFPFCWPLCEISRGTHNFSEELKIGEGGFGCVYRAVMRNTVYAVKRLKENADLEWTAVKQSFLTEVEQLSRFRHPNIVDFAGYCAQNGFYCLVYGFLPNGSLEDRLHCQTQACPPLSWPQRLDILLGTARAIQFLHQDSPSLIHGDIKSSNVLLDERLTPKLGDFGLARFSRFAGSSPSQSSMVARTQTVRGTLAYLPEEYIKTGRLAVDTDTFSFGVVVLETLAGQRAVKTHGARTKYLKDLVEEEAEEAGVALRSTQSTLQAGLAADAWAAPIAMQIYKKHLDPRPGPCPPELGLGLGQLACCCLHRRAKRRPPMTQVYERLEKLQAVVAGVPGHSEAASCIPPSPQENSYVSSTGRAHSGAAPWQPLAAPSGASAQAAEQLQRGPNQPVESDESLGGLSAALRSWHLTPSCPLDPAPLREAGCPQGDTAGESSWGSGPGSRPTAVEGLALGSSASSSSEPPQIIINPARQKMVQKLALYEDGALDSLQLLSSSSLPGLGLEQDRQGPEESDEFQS
BDNF/NT-3 growth factors receptor, sequence (Q16620 whole entry): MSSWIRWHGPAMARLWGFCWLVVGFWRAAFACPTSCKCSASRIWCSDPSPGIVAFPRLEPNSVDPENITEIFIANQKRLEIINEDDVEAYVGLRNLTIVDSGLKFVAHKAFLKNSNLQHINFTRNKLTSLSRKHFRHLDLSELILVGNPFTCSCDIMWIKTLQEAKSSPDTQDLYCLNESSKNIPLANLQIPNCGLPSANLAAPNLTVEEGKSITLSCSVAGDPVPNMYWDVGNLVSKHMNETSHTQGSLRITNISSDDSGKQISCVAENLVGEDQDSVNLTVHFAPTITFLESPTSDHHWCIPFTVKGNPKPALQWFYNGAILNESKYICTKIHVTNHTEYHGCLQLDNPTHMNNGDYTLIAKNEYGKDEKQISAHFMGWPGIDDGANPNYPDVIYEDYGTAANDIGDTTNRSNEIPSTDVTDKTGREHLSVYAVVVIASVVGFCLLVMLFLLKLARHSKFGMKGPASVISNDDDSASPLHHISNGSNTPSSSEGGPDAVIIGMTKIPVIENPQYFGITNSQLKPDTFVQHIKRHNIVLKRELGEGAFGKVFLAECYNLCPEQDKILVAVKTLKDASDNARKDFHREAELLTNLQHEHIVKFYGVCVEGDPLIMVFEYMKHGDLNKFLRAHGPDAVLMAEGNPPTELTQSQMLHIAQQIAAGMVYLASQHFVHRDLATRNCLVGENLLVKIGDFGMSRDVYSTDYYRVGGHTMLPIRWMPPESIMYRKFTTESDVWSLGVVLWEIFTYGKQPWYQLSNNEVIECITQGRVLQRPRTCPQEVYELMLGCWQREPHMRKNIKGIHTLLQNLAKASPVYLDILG
NT-3 growth factor receptor, sequence (Q16288 whole entry): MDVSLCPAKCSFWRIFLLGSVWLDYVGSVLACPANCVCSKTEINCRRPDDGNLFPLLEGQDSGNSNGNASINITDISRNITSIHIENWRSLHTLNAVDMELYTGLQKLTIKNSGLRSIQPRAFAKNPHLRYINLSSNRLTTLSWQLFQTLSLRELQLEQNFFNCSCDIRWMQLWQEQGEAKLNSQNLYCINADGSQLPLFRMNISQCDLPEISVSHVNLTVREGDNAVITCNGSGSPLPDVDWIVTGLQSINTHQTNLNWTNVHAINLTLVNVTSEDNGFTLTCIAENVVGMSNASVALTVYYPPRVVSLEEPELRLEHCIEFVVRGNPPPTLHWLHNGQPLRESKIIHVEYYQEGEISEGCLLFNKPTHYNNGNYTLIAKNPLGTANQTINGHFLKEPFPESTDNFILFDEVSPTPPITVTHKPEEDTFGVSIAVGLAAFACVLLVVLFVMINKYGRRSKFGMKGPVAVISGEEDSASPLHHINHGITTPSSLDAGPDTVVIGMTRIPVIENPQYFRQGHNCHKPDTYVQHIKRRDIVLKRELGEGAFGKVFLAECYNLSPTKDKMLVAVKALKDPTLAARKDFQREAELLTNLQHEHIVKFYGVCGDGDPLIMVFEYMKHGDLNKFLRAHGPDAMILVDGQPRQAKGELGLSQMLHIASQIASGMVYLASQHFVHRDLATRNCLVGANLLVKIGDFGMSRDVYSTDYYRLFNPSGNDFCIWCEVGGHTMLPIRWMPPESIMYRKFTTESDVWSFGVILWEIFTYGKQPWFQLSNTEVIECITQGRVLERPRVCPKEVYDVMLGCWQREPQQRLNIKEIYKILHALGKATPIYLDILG

## Cc1ncc(-c2nc3c(OC4(C)CC4)nc(Nc4cnn(C5CCN(C)CC5)c4)nc3cc2F)cn1
[1]
  inhibition of growth at 0.17 µM: -2%
[2]
  inhibition of growth at 1.7 µM: 44%
[3]
  inhibition of growth at 0.17 µM: 1%
[4]
  fraction unbound: 0.21
[5]
  half-life: 5.2 h
[6]
  IC50: 760 nM
[7]
  half-life: 30 h
[8]
  inhibition of growth at 10 µM: 0%
[9]
  IC50: > 8000 nM
[10]
  IC50: 270 nM
[11]
  IC50: 1400 nM
[12]
  IC50: 53 nM
[13]
  inhibition of growth at 0.33 µM: 8%
[14]
  microsomal CLint: 16 µL/min/mg
[15]
  logD: 2.6
[16]
  half-life: 4.2 h
[17]
  microsomal CLint: < 0.5 µL/min/mg
[18]
  inhibition of growth at 1.7 µM: -2%
[19]
  hepatocyte CLint: 4.5 µL/min/1e6 cells
[20]
  efflux ratio at 6 h: 1.4
[21]
  IC50: 270 nM
[22]
  solubility: 800 µM (≈ 392 µg/mL)
[23]
  inhibition of growth at 3.3 µM: -2%
[24]
  inhibition of growth at 0.33 µM: -1%
[25]
  IC50: 110 nM

## CC[C@@H]1[C@H](F)C(=O)N[C@@H]1COc1nccc2cc(C(N)=O)c(OC)cc12 [ZIMLOVISERTIB]
[1]
  inhibition of growth at 0.17 µM: 1%
[8]
  inhibition of growth at 10 µM: 2%
[26]
  inhibition of growth at 0.33 µM: 5%
[27]
  inhibition of growth at 1.7 µM: 10%
[28]
  inhibition of growth at 10 µM: 63%
[18]
  inhibition of growth at 1.7 µM: 1%
[23]
  inhibition of growth at 3.3 µM: 1%
[24]
  inhibition of growth at 0.33 µM: 1%

## Cc1ncc(-c2nc3c(NC(C)C)nc(Nc4cnn(C5CC6(C5)CN(C)C6)c4)nc3cc2F)cn1
[2]
  inhibition of growth at 1.7 µM: 75%
[3]
  inhibition of growth at 0.17 µM: 5%
[6]
  IC50: 930 nM
[9]
  IC50: > 10000 nM
[10]
  IC50: 480 nM
[11]
  IC50: 1200 nM
[12]
  IC50: 230 nM
[13]
  inhibition of growth at 0.33 µM: 35%
[15]
  logD: 1.9
[20]
  efflux ratio at 6 h: 4.2
[21]
  IC50: 570 nM
[22]
  solubility: > 1000 µM
[25]
  IC50: 210 nM
